From ChEMBL document CHEMBL1629463, “In vitro anti-rotavirus activity of polyphenol compounds isolated from the roots of Glycyrrhiza uralensis” (Bioorg Med Chem, 2010) come the findings set out here.

Usually CC50 stands for the concentration that lowers cell viability or growth by half. By EC50 is commonly meant the concentration needed to bring the measured effect to its halfway point.

Values after ≈ are worked out from the molar mass of the structure shown. Active and inactive are the calls of the source. No cut-off for these calls is given here. Some results are limits rather than exact numbers.

A short description of series [1]: Cytotoxicity against african green monkey TF-104 cells after 72 hrs by MTT assay. The class given is cell-based. The note with it: chlorocebus aethiops. (Formazan colour is commonly taken as a measure of viable cells.)
Series [2] has as its system Bovine rotavirus. Nature of the series: Antiviral activity against KJ56-1 Bovine rotavirus G8P[7] infected in african green monkey TF-104 cells assessed as inhibition of virus-induced cytopathic effect after 72 hrs. The class given is functional, cell-based. Conditions: Rotavirus A, TF-104, 72 h. For orientation: Cytopathic effects are the visible damage that an infection or toxin causes in cultured cells.

The subject of series [3] is Porcine rotavirus. Description: Antiviral activity against KJ56-1 Porcine rotavirus G5P[7] in human RBC assessed as inhibition of virus-induced hemagglutinination after 1 hr. It counts as functional.
Series [4] concerns Bovine rotavirus. Description: Antiviral activity against KJ56-1 Bovine rotavirus G8P[7] infected in african green monkey TF-104 cells after 72 hrs by virucidal assay. The note with it: Rotavirus A, TF-104, 72 h. The class given is functional, cell-based.
For series [5], the system named is Bovine rotavirus. Description: Antiviral activity against KJ56-1 Bovine rotavirus G8P[7] in human RBC assessed as inhibition of virus-induced hemagglutinination after 1 hr. The note with it: Rotavirus A. It counts as functional.
Series [6] is described as follows: Selectivity index, ratio of CC50 for african green monkey TF-104 cells to EC50 for KJ56-1 Bovine rotavirus G8P[7] by virucidal assay. It counts as toxicity, cell-based. The note with it: read-out: Ratio CC50/EC50.
The test system of series [7] is Bovine rotavirus. Description: Antiviral activity against KJ56-1 Bovine rotavirus G8P[7] infected in african green monkey TF-104 cells assessed as inhibition of viral mRNA synthesis at 40 to 50 uM after 18 hrs by RT-PCR analysis. It counts as functional, cell-based.
For series [8], the system named is Porcine rotavirus. Nature of the series: Antiviral activity against KJ56-1 Porcine rotavirus G5P[7] infected in african green monkey TF-104 cells assessed as inhibition of virus-induced cytopathic effect after 72 hrs. The class given is functional, cell-based. The note with it: TF-104, 72 h.
For series [9], the system named is Porcine rotavirus. Nature of the series: Antiviral activity against KJ56-1 Porcine rotavirus G5P[7] infected in african green monkey TF-104 cells assessed as inhibition of viral mRNA synthesis at 40 to 50 uM after 18 hrs by RT-PCR analysis. The class given is functional, cell-based.
A short description of series [10]: Selectivity index, ratio of CC50 for african green monkey TF-104 cells to EC50 for cytopathic inhibition activity against KJ56-1 Povine rotavirus […]. Conditions: read-out: Ratio CC50/EC50. The class given is toxicity, cell-based.
Series [11] in a line: Selectivity index, ratio of CC50 for african green monkey TF-104 cells to EC50 for cytopathic inhibition activity against KJ56-1 Bovine rotavirus G8P[7]. The class given is toxicity, cell-based. Conditions: read-out: Ratio CC50/EC50.
Series [12] concerns Porcine rotavirus. Description: Antiviral activity against KJ56-1 Porcine rotavirus G5P[7] infected in african green monkey TF-104 cells after 72 hrs by virucidal assay. It counts as functional, cell-based. Conditions: Rotavirus A, TF-104, 72 h.
The subject of series [13] is Bovine rotavirus. Nature of the series: Antiviral activity against KJ56-1 Bovine rotavirus G8P[7] infected in african green monkey TF-104 cells assessed as inhibition of viral replication at 30 uM after 24 hrs by immunofluorescence assay. The class given is functional, cell-based.
Series [14] is described as follows: Selectivity index, ratio of CC50 for african green monkey TF-104 cells to EC50 for virucidal activity against KJ56-1 Povine rotavirus […]. It counts as toxicity, cell-based. Conditions: read-out: Ratio CC50/EC50.
The test system of series [15] is Porcine rotavirus. Description: Antiviral activity against KJ56-1 Porcine rotavirus G5P[7] infected in african green monkey TF-104 cells assessed as inhibition of viral replication at 30 uM after 24 hrs by immunofluorescence assay. The class given is functional, cell-based.

`COc1cc2oc(=O)c(-c3ccc(O)cc3O)cc2c(OC)c1CC=C(C)C` [GLYCYRIN] registered a half-maximal cytotoxic concentration (CC50) at 72 h in [1] above 133 µM. In addition, the EC50 with Bovine rotavirus [2] was above 100 µM; in the series with Bovine rotavirus [4], 88.1 µM. The MIC in the series on Porcine rotavirus [3] and in the series on Bovine rotavirus [5] was 17.2 µM (≈ 6.58 µg/mL) throughout. Moreover, the selectivity ratio in [6] was above 1.5.
With `COc1cc(O)ccc1C(=O)/C=C/c1ccc(O)cc1`, the inhibition entry with Bovine rotavirus [7] and with Porcine rotavirus [9] was “Active” each time. In addition, the concentration for a half-maximal effect (EC50) is 24 µM with Porcine rotavirus [8], 41.8 µM with Bovine rotavirus [2] and 69.5 µM in the series on Porcine rotavirus [12]. In series [1], the half-maximal cytotoxic concentration (CC50) at 72 h was above 133 µM. In addition, the selectivity ratio is 5.6 in series [10] and above 3.2 in series [11]. Further, the MIC result in the series on Porcine rotavirus [3] is “inactive”. Further, in the series with Bovine rotavirus [5], the MIC is 17.2 µM (≈ 4.65 µg/mL).
Regarding `O=c1c(-c2ccc(O)cc2)coc2cc(O)cc(O)c12` [GENISTEIN], the CC50 at 72 h in series [1] is 174 µM. The selectivity ratio in series [11] was found to be 1.8. Also, the concentration for a half-maximal effect (EC50) in the series with Bovine rotavirus [2] came to 99.6 µM.
`COc1c(CC=C(C)C)c(O)cc2c1C[C@H](c1ccc(O)cc1O)CO2` [GLYASPERIN C]: the inhibition entry in the series with Bovine rotavirus [7], with Porcine rotavirus [9], in the series on Bovine rotavirus [13] and with Porcine rotavirus [15] was “Active” each time. For the same compound, the EC50 with Porcine rotavirus [8] amounted to 12.1 µM; with Bovine rotavirus [2] it was 12 µM; with Bovine rotavirus [4], 14.7 µM; in the series on Porcine rotavirus [12], 18.7 µM. Further, it took 42.8 µM to reach half-maximal cytotoxicity in series [1] (CC50 at 72 h). Moreover, the selectivity ratio in series [10] amounted to 3.6; in series [11], 3.6; in series [14] it was 2.3; in series [6], 2.9. For the same compound, the MIC with Porcine rotavirus [3] and in the series on Bovine rotavirus [5] was 17.2 µM (≈ 6.13 µg/mL) each time.
For `CC(C)=CCc1c(O)cc2oc(-c3ccc(O)cc3)c(O)c(=O)c2c1O` [LICOFLAVONOL], the inhibition result with Bovine rotavirus [7], in the series on Porcine rotavirus [9] and in the series on Bovine rotavirus [13] was “Active” each time. The compound also displayed a cytotoxic concentration (CC50) at 72 h in series [1] of 85.3 µM. Further, the selectivity ratio in series [11] came out at 3.3; in series [14], 2.3; in [6] it was 5.5. In addition, the half-maximal effective concentration (EC50) came to 25.9 µM with Bovine rotavirus [2], 15.5 µM in the series on Bovine rotavirus [4] and 36.8 µM in the series with Porcine rotavirus [12]. The MIC with Porcine rotavirus [3] and in the series with Bovine rotavirus [5] was 17.2 µM (≈ 6.09 µg/mL) throughout. For the same compound, the inhibition result in the series with Porcine rotavirus [15] was “inactive”.
As for `COc1c(CC=C(C)C)c(O)cc2oc(-c3ccc(O)cc3O)cc12` [LICOCOUMARONE], the inhibition result in the series with Bovine rotavirus [7] and with Porcine rotavirus [9] was “Active” in each case. Also, the 50% effective concentration (EC50) in the series with Porcine rotavirus [8] worked out at 43.6 µM; in the series with Bovine rotavirus [2], 22.3 µM; in the series with Bovine rotavirus [4], 37.8 µM; in the series with Porcine rotavirus [12], 26.1 µM. Besides, half-maximal cytotoxicity in [1] (CC50 at 72 h) was put at 54.5 µM. Further, the selectivity ratio in series [10] came out at 1.3; in series [11], 2.5; in series [14], 2.1; in series [6] it was 1.4. In addition, the MIC in the series on Porcine rotavirus [3] and in the series with Bovine rotavirus [5] was 17.2 µM (≈ 5.85 µg/mL) each time.
For the compound `COc1cc2c(c(OC)c1CC=C(C)C)C[C@H](c1ccc(O)cc1O)CO2` [GLYASPERIN D], the inhibition result in the series with Bovine rotavirus [7], in the series on Porcine rotavirus [9] and with Bovine rotavirus [13] was “Active” throughout. In series [1], this compound displayed a half-maximal cytotoxic concentration (CC50) at 72 h of 68.1 µM. For the same compound, the selectivity ratio in series [11] was determined as 1.6; in series [6], 5.7. Besides, the values for the EC50 in the series on Bovine rotavirus [2] and in the series on Bovine rotavirus [4] were 42 µM and 17.6 µM, respectively. Further, the MIC with Porcine rotavirus [3] and with Bovine rotavirus [5] was 17.2 µM (≈ 6.37 µg/mL) in each case. Moreover, in the series with Porcine rotavirus [15], the inhibition result is “inactive”.
